Legend:
Type in all cases: in vivo
Alopecurus myosuroides = experiment: Test Example 5: herbicidal effect by foliage application, plastic box (symbol J); settings: 320 g/ha, 3 weeks after application
In short: (§1)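 After sowing into sterilized diluvial soil and growing two weeks under glass at 25° C. to 30° C., seedlings receive a uniform foliar spray of diluted emulsion. Damage is judged visually three weeks on.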

Veronica persica = experiment: Test Example 4: herbicidal effect by soil treatment (symbol R); settings: application herbicide amount 320 g/ha
In short: (§2)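 Seeds were sown in sterilized diluvial soil, covered with about 1.5 cm of soil, and the soil surface was sprayed with a water-diluted emulsion of the compound at a predetermined rate. Plants grew in a greenhouse at 25° C. to 30° C.; effects were scored visually 3 weeks after application.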

Abutilon theophrasti = experiment: Test Example 5: herbicidal effect by foliage application, plastic box (symbol M); settings: 320 g/ha, 3 weeks after application
In short: as §1

corn = experiment: Test Example 4: effect on crop by soil treatment (symbol c); settings: application herbicide amount 320 g/ha
In short: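 Steps: fill box with sterilized diluvial soil; sow seed spot-like; cover with ~1.5 cm soil; grow in greenhouse (25° C. to 30° C.).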

soybean [1] = experiment: Test Example 4: effect on crop by soil treatment (symbol d); settings: application herbicide amount 320 g/ha
In short: (§3)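 The test used sterilized diluvial soil. Seed was set down in spots and overlaid with about 1.5 cm of soil before growth in a greenhouse kept at 25° C. to 30° C.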

beet [2] = experiment: Test Example 5: effect on crop by foliage application, plastic box (symbol f); settings: 320 g/ha, 3 weeks after application
In short: (§4)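 A greenhouse held between 25° C. and 30° C. was used to grow plants sown spot-wise, beneath ~1.5 cm of soil, in boxes of sterilized diluvial soil.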

[3] = tested on: Echinochloa crus-galli var. crus-galli; experiment: Test Example 3: herbicidal effect by foliage application, Wagner pot (symbol H); settings: application herbicide amount 320 g/ha
In short: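 Seeds sown in alluvial soil kept under 0.1–0.5 cm water, greenhouse 25–30 °C; 14 d growth. Leaves treated by small sprayer with water-diluted emulsion at a predetermined rate. Effect graded by set scale, 3 weeks.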

beet [4] = experiment: Test Example 4: effect on crop by soil treatment (symbol f); settings: application herbicide amount 320 g/ha
In short: as §3

wheat = experiment: Test Example 5: effect on crop by foliage application, plastic box (symbol e); settings: 320 g/ha, 3 weeks after application
In short: as §4

rice plant = experiment: Test Example 5: effect on crop by foliage application, plastic box (symbol b); settings: 320 g/ha, 3 weeks after application
In short: as §4

soybean [5] = experiment: Test Example 5: effect on crop by foliage application, plastic box (symbol d); settings: 320 g/ha, 3 weeks after application
In short: as §4

[6] = tested on: Echinochloa oryzacola Vasing.; experiment: Test Example 1: herbicidal activity, application before weed generation in submerged conditions (symbol A); settings: application herbicide amount 320 g/ha
In short: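 0–5 visual score, 3 wk post-application. Submerged pots, alluvial soil, water 4 cm; seeds sown mixed, rice at 2.5 leaves transplanted. Emulsion diluted to predetermined dose, applied to water surface at sowing. 25–30 °C greenhouse.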

transplanted rice plant = experiment: Test Example 1: effect on crop, application before weed generation in submerged conditions (symbol a); settings: application herbicide amount 320 g/ha
In short: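 Alluvial soil pots flooded to 4 cm water, sown with Echinochloa oryzacola, Scirpus juncoides and Monochoria vaginalis, then transplanted with 2.5 leaf stage rice seedlings; pre-emergence application. Greenhouse 25° C. to 30° C.; scored 0–5 by herbicidal ratio 3 weeks after application.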

Stellaria media = experiment: Test Example 4: herbicidal effect by soil treatment (symbol P); settings: application herbicide amount 320 g/ha
In short: as §2

**Q.** Which results are given for `CON=C(C)CC1CC(O)=C(c2c(C)cc(-c3ccc(OC(F)(F)F)cc3)cc2C)C1=O` (mixture of isomers) [6-056]?
**A.** J: Alopecurus myosuroides, herbicidal effect (criteria of Test Example 1) (Alopecurus myosuroides): 3 (Herbicidal ratio of 40% or higher and lower than 70%); R: Veronica persica, herbicidal effect grade (Veronica persica): 0 (Herbicidal ratio of 5% or lower (almost no effect)); M: Abutilon theophrasti, herbicidal effect (criteria of Test Example 1) (Abutilon theophrasti): 0 (Herbicidal ratio of 5% or lower (almost no effect)); c: corn, effect on crop grade (corn): 0 (Herbicidal ratio of 5% or lower (almost no effect)); d: soybean, effect on crop grade (soybean [1]): 0 (Herbicidal ratio of 5% or lower (almost no effect)); f: beet, effect on crop (criteria of Test Example 1) (beet [2]): 0 (Herbicidal ratio of 5% or lower (almost no effect)); herbicidal effect on H (Echinochloa crus-galli var. crus-galli), grade 0-5 [3]: 4 (Herbicidal ratio of 70% or higher and lower than 90%); f: beet, effect on crop grade (beet [4]): 0 (Herbicidal ratio of 5% or lower (almost no effect)); e: wheat, effect on crop (criteria of Test Example 1) (wheat): 0 (Herbicidal ratio of 5% or lower (almost no effect)); b: directly sowed rice plant, effect on crop (criteria of Test Example 1) (rice plant): 2 (Herbicidal ratio of 20% or higher and lower than 40%); d: soybean, effect on crop (criteria of Test Example 1) (soybean [5]): 0 (Herbicidal ratio of 5% or lower (almost no effect)); Herbicidal effect grade, A: Echinochloa oryzacola Vasing. [6]: 3 (Herbicidal ratio of 40% or higher and lower than 70%); Effect grade on crop, a: transplanted rice plant (transplanted rice plant): 0 (Herbicidal ratio of 5% or lower (almost no effect)); P: Stellaria media, herbicidal effect grade (Stellaria media): 0 (Herbicidal ratio of 5% or lower (almost no effect))

**Q.** What does the source list for `CC(=O)CC1CC(O)=C(c2c(C)cc(-c3ccc(C)cc3)cc2C)C1=O` (stereo not shown) [7-007]?
**A.** J: Alopecurus myosuroides, herbicidal effect (criteria of Test Example 1) (Alopecurus myosuroides): 5 (Herbicidal ratio of 90% or more (almost completely withered)); Herbicidal effect grade, R: Veronica persica (Veronica persica): 0 (Herbicidal ratio of 5% or lower (almost no effect)); M: Abutilon theophrasti, herbicidal effect (criteria of Test Example 1) (Abutilon theophrasti): 0 (Herbicidal ratio of 5% or lower (almost no effect)); Effect on crop grade, c: corn (corn): 3 (Herbicidal ratio of 40% or higher and lower than 70%); Effect on crop grade, d: soybean (soybean [1]): 0 (Herbicidal ratio of 5% or lower (almost no effect)); f: beet, effect on crop (criteria of Test Example 1) (beet [2]): 0 (Herbicidal ratio of 5% or lower (almost no effect)); herbicidal effect on H (Echinochloa crus-galli var. crus-galli), grade 0-5 [3]: 5 (Herbicidal ratio of 90% or more (almost completely withered)); Effect on crop grade, f: beet (beet [4]): 0 (Herbicidal ratio of 5% or lower (almost no effect)); e: wheat, effect on crop (criteria of Test Example 1) (wheat): 2 (Herbicidal ratio of 20% or higher and lower than 40%); b: directly sowed rice plant, effect on crop (criteria of Test Example 1) (rice plant): 5 (Herbicidal ratio of 90% or more (almost completely withered)); d: soybean, effect on crop (criteria of Test Example 1) (soybean [5]): 0 (Herbicidal ratio of 5% or lower (almost no effect)); Herbicidal effect grade, A: Echinochloa oryzacola Vasing. [6]: 5 (Herbicidal ratio of 90% or more (almost completely withered)); Effect grade on crop, a: transplanted rice plant (transplanted rice plant): 5 (Herbicidal ratio of 90% or more (almost completely withered)); Herbicidal effect grade, P: Stellaria media (Stellaria media): 0 (Herbicidal ratio of 5% or lower (almost no effect))

**Q.** For `CC(=O)CC1CC(O)=C(c2c(C)cc(OCC(F)(F)F)cc2C)C1=O` (stereo not shown) [7-015], which “J: Alopecurus myosuroides, herbicidal effect (criteria of Test Example 1)” value (Alopecurus myosuroides) is on record?
**A.** The value was 5 (Herbicidal ratio of 90% or more (almost completely withered)).

**Q.** And the “Herbicidal effect grade, R: Veronica persica” value (Veronica persica)?
**A.** The value was 0 (Herbicidal ratio of 5% or lower (almost no effect)).

**Q.** And the “M: Abutilon theophrasti, herbicidal effect (criteria of Test Example 1)” value (Abutilon theophrasti)?
**A.** The value was 2 (Herbicidal ratio of 20% or higher and lower than 40%).

**Q.** What about the “Effect on crop grade, c: corn” value (corn) of the same molecule?
**A.** The value was 5 (Herbicidal ratio of 90% or more (almost completely withered)).

**Q.** And the “Effect on crop grade, d: soybean” value (soybean [1])?
**A.** The value was 0 (Herbicidal ratio of 5% or lower (almost no effect)).

**Q.** And the “f: beet, effect on crop (criteria of Test Example 1)” value (beet [2])?
**A.** The value was 0 (Herbicidal ratio of 5% or lower (almost no effect)).

**Q.** What about the “herbicidal effect on H (Echinochloa crus-galli var. crus-galli), grade 0-5” value [3] of the same molecule?
**A.** The value was 5 (Herbicidal ratio of 90% or more (almost completely withered)).

**Q.** What about the “Effect on crop grade, f: beet” value (beet [4]) of the same molecule?
**A.** The value was 0 (Herbicidal ratio of 5% or lower (almost no effect)).

**Q.** And the “e: wheat, effect on crop (criteria of Test Example 1)” value (wheat)?
**A.** The value was 5 (Herbicidal ratio of 90% or more (almost completely withered)).

**Q.** What about the “b: directly sowed rice plant, effect on crop (criteria of Test Example 1)” value (rice plant) of the same molecule?
**A.** Its value is 5 (Herbicidal ratio of 90% or more (almost completely withered)).

**Q.** What about the “d: soybean, effect on crop (criteria of Test Example 1)” value (soybean [5]) of the same molecule?
**A.** Its value is 0 (Herbicidal ratio of 5% or lower (almost no effect)).

**Q.** What about the “Herbicidal effect grade, A: Echinochloa oryzacola Vasing.” value [6] of the same molecule?
**A.** The value was 5 (Herbicidal ratio of 90% or more (almost completely withered)).

**Q.** And the “Effect grade on crop, a: transplanted rice plant” value (transplanted rice plant)?
**A.** Its value is 5 (Herbicidal ratio of 90% or more (almost completely withered)).

**Q.** What about the “Herbicidal effect grade, P: Stellaria media” value (Stellaria media) of the same molecule?
**A.** The value was 0 (Herbicidal ratio of 5% or lower (almost no effect)).

**Q.** What does the source list for `CON=C(C)CC1CC(OC(=O)C(C)CSC)=C(c2c(C)cc(-c3ccc(Cl)cc3)cc2C)C1=O` (stereo not shown) [6-086]?
**A.** J: Alopecurus myosuroides, herbicidal effect (criteria of Test Example 1) (Alopecurus myosuroides): 5 (Herbicidal ratio of 90% or more (almost completely withered)); Herbicidal effect grade, R: Veronica persica (Veronica persica): 4 (Herbicidal ratio of 70% or higher and lower than 90%); M: Abutilon theophrasti, herbicidal effect (criteria of Test Example 1) (Abutilon theophrasti): 3 (Herbicidal ratio of 40% or higher and lower than 70%); Effect on crop grade, c: corn (corn): 0 (Herbicidal ratio of 5% or lower (almost no effect)); Effect on crop grade, d: soybean (soybean [1]): 5 (Herbicidal ratio of 90% or more (almost completely withered)); f: beet, effect on crop (criteria of Test Example 1) (beet [2]): 3 (Herbicidal ratio of 40% or higher and lower than 70%); herbicidal effect on H (Echinochloa crus-galli var. crus-galli), grade 0-5 [3]: 5 (Herbicidal ratio of 90% or more (almost completely withered)); Effect on crop grade, f: beet (beet [4]): 1 (Herbicidal ratio of 5% or higher and lower than 20%); e: wheat, effect on crop (criteria of Test Example 1) (wheat): 5 (Herbicidal ratio of 90% or more (almost completely withered)); b: directly sowed rice plant, effect on crop (criteria of Test Example 1) (rice plant): 5 (Herbicidal ratio of 90% or more (almost completely withered)); d: soybean, effect on crop (criteria of Test Example 1) (soybean [5]): 5 (Herbicidal ratio of 90% or more (almost completely withered)); Herbicidal effect grade, A: Echinochloa oryzacola Vasing. [6]: 5 (Herbicidal ratio of 90% or more (almost completely withered)); Effect grade on crop, a: transplanted rice plant (transplanted rice plant): 5 (Herbicidal ratio of 90% or more (almost completely withered)); Herbicidal effect grade, P: Stellaria media (Stellaria media): 4 (Herbicidal ratio of 70% or higher and lower than 90%)

**Q.** For `CC(=O)CC1CC(O)=C(c2c(C)cc(-c3ccc(Cl)cc3)cc2C)C1=O` (stereo not shown) [7-008], which “J: Alopecurus myosuroides, herbicidal effect (criteria of Test Example 1)” value (Alopecurus myosuroides) is on record?
**A.** The value was 5 (Herbicidal ratio of 90% or more (almost completely withered)).

**Q.** What about the “Herbicidal effect grade, R: Veronica persica” value (Veronica persica) of the same molecule?
**A.** Its value is 0 (Herbicidal ratio of 5% or lower (almost no effect)).

**Q.** And the “M: Abutilon theophrasti, herbicidal effect (criteria of Test Example 1)” value (Abutilon theophrasti)?
**A.** Its value is 1 (Herbicidal ratio of 5% or higher and lower than 20%).

**Q.** What about the “Effect on crop grade, c: corn” value (corn) of the same molecule?
**A.** The value was 4 (Herbicidal ratio of 70% or higher and lower than 90%).

**Q.** And the “Effect on crop grade, d: soybean” value (soybean [1])?
**A.** The value was 0 (Herbicidal ratio of 5% or lower (almost no effect)).

**Q.** What about the “f: beet, effect on crop (criteria of Test Example 1)” value (beet [2]) of the same molecule?
**A.** Its value is 0 (Herbicidal ratio of 5% or lower (almost no effect)).

**Q.** And the “herbicidal effect on H (Echinochloa crus-galli var. crus-galli), grade 0-5” value [3]?
**A.** Its value is 5 (Herbicidal ratio of 90% or more (almost completely withered)).

**Q.** What about the “Effect on crop grade, f: beet” value (beet [4]) of the same molecule?
**A.** The value was 0 (Herbicidal ratio of 5% or lower (almost no effect)).

**Q.** And the “e: wheat, effect on crop (criteria of Test Example 1)” value (wheat)?
**A.** Its value is 4 (Herbicidal ratio of 70% or higher and lower than 90%).

**Q.** What about the “b: directly sowed rice plant, effect on crop (criteria of Test Example 1)” value (rice plant) of the same molecule?
**A.** The value was 5 (Herbicidal ratio of 90% or more (almost completely withered)).

**Q.** And the “d: soybean, effect on crop (criteria of Test Example 1)” value (soybean [5])?
**A.** Its value is 0 (Herbicidal ratio of 5% or lower (almost no effect)).

**Q.** What about the “Herbicidal effect grade, A: Echinochloa oryzacola Vasing.” value [6] of the same molecule?
**A.** The value was 4 (Herbicidal ratio of 70% or higher and lower than 90%).

**Q.** What about the “Effect grade on crop, a: transplanted rice plant” value (transplanted rice plant) of the same molecule?
**A.** The value was 5 (Herbicidal ratio of 90% or more (almost completely withered)).

**Q.** What about the “Herbicidal effect grade, P: Stellaria media” value (Stellaria media) of the same molecule?
**A.** Its value is 0 (Herbicidal ratio of 5% or lower (almost no effect)).

From patent US11000033B2, “Ketone or oxime compound, and herbicide” (NISSAN CHEMICAL CORPORATION, priority 2014, dated 2021)
